These are literature values, as cited in patent publication US8952004B2, “CXCR3 receptor antagonists” (Boehringer Ingelheim International GmbH, priority 2010, dated 2015).

SMILES strings stand for the structures.

This data set relates to atherosclerotic lesion formation. As to conditions: LDL receptor knockout model, dosed prophylactically.

`CCOc1ccc(-n2c(C(C)N(Cc3cccnc3)C(=O)Cc3ccc(F)c(C(F)(F)F)c3)nc3ncccc3c2=O)cc1` (stereo not shown) [NBI-74330]: the atherosclerotic lesion formation result is reported as “significantly attenuated atherosclerotic lesion formation”.
